We go through 23 compounds from ChEMBL document CHEMBL1926525 (Bioorg Med Chem Lett, 2011).

What is called IC50 is the concentration at which inhibition is half-maximal. One may read the half-life as the time needed for the level to fall by half in the phase considered. As usually defined, the ED50 is the dose that gives a 50% effect, or the effect in half of the subjects. A word on the inhibition in vivo: it is the relative decrease from the control value, in per cent.

One series concerns PBMC. Kind of series: Antiproliferative activity against PHA-stimulated human PBMC assessed as inhibition of […] after 72 hrs by BrdU-ELISA assay. The series is classed as functional, cell-based.
Settings: not given
A general note: Dividing cells build labelled thymidine or BrdU into new DNA.
With `CC/C(O)=C(\C#N)C(=O)Nc1ccc(-c2ccc(F)cc2)c(C(=O)OC)c1`, the IC50 stood at 2 µM.
The same measure, in the same setting: under `CC/C(O)=C(\C#N)C(=O)Nc1ccc(-c2cccc(Cl)c2)c(C(=O)OC)c1` stands 34 µM; under `CC/C(O)=C(\C#N)C(=O)Nc1ccc(-c2ccc(Cl)cc2)c(C(=O)OC)c1`, 13 µM; under `CC/C(O)=C(\C#N)C(=O)Nc1ccc(-c2cccc(OC(F)(F)F)c2)c(C(=O)OC)c1`, 37 µM.
The same measure, in the same setting: the value for `CC/C(O)=C(\C#N)C(=O)Nc1ccc(-c2ccc(F)cc2F)c(C(=O)OC)c1` was 6 µM.
On the same count and under the same terms, the value for `CC/C(O)=C(\C#N)C(=O)Nc1ccc(-c2cc(F)c(F)c(F)c2)c(C(=O)OC)c1` was 19 µM; that for `CC/C(O)=C(\C#N)C(=O)Nc1ccc(-c2ccc3c(c2)OCO3)c(C(=O)OC)c1` was 18.5 µM.
Regarding `C/C(O)=C(\C#N)C(=O)Nc1ccc(C(F)(F)F)cc1` [TERIFLUNOMIDE], the half-maximal inhibitory concentration (IC50) came to 46 µM.

Test system in a further series: not listed separately
Kind of series: Half life in human plasma.
Settings: not given
It counts as ADME, organism-based.
Compound `CC/C(O)=C(\C#N)C(=O)Nc1ccc(-c2ccc(F)cc2)c(C(=O)OC)c1` gave a half-life of 336 h.

Test system in another series: not listed separately
Kind of series: Metabolic stability in rat microsomes assessed as compound degradation at 5 uM after 30 mins. It counts as ADME, Microsome. The conditions noted are these: read-out: Drug metabolism.
For the compound `CC/C(O)=C(\C#N)C(=O)Nc1ccc(-c2ccc(F)cc2)c(C(=O)OC)c1`, the metabolised at 0.5 h, 5 µM worked out at 19%.
The same measure, in the same setting: under `C/C(O)=C(\C#N)C(=O)Nc1ccc(C(F)(F)F)cc1` [TERIFLUNOMIDE] stands 0%.

Test system in another series: not listed separately
Kind of series: Metabolic stability in human microsomes assessed as compound degradation at 5 uM after 30 mins. The conditions noted are these: read-out: Drug metabolism. It counts as ADME, Microsome.
Regarding `CC/C(O)=C(\C#N)C(=O)Nc1ccc(-c2ccc(F)cc2)c(C(=O)OC)c1`, the metabolised at 0.5 h, 5 µM worked out at 17%.
Still for that read-out and setting: under `C/C(O)=C(\C#N)C(=O)Nc1ccc(C(F)(F)F)cc1` [TERIFLUNOMIDE] stands 3%.

A further series deals with Rattus norvegicus. Kind of series: Antiinflammatory activity in rat Freund's adjuvant induced-arthritis model assessed as inhibition of paw edema administered 10 days post challenge once daily for 10 days. The series is classed as functional. The conditions noted are these: 240 h.
`C/C(O)=C(\C#N)C(=O)Nc1ccc(C(F)(F)F)cc1` [TERIFLUNOMIDE]: the 50% effective dose (ED50) was found to be 2.88 mg/kg.

The target in another series is Dihydroorotate dehydrogenase (quinone), mitochondrial (Rattus norvegicus, UniProt Q63707). Put plainly: Inhibition of rat dihydroorotate dehydrogenase.
Sequence of Dihydroorotate dehydrogenase (quinone), mitochondrial (Rattus norvegicus, UniProt Q63707) (Q63707 whole entry): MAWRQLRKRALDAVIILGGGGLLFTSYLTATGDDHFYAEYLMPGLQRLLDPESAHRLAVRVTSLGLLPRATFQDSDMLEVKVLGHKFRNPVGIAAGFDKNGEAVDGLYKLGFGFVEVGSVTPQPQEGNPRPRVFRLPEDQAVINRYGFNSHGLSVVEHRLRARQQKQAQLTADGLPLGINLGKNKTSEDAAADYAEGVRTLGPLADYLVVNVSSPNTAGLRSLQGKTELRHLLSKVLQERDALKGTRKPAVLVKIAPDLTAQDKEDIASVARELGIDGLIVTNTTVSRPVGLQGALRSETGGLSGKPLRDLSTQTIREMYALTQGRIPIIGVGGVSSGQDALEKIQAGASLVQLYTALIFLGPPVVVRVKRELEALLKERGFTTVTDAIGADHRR
Settings: not given
Consider `CC/C(O)=C(\C#N)C(=O)Nc1ccc(-c2ccc(F)cc2)c(C(=O)OC)c1`, for which inhibition was half-maximal at 0.35 µM (IC50).

The test system of a further series is Rattus norvegicus. Kind of series: Antiinflammatory activity in rat Freund's adjuvant induced-arthritis model assessed as inhibition of paw edema at 10 mg/kg qd administered 10 days post challenge for 10 consecutive days. The series is classed as functional. The settings on record: 240 h.
`CC/C(O)=C(\C#N)C(=O)Nc1ccc(-c2ccc(F)cc2)c(C(=O)OC)c1`: the inhibition in vivo at 10 mg/kg stood at 49%.

Test system in a further series: not listed separately
Kind of series: Half life in rat at 1 mg/kg, iv. Further details: dose 1 mg/kg, route intravenous. The settings on record: in vivo. It counts as ADME, organism-based.
The compound `CC/C(O)=C(\C#N)C(=O)Nc1ccc(OS(=O)(=O)C(F)(F)F)cc1` had a half-life of 8 h.
In turn, `CC/C(O)=C(\C#N)C(=O)Nc1ccc(OS(=O)(=O)C(F)(F)F)c(C(=O)OC)c1` showed a half-life of 2 h.
Same read-out and setting: the value for `CC/C(O)=C(\C#N)C(=O)Nc1ccc(-c2ccc(F)cc2)c(C(=O)OC)c1` was 0.9 h; that for `C/C(O)=C(\C#N)C(=O)Nc1ccc(C(F)(F)F)cc1` [TERIFLUNOMIDE] was 14.1 h.

The target of the next series is Dihydroorotate dehydrogenase (quinone), mitochondrial (Homo sapiens, UniProt Q02127). Put plainly: Inhibition of human dihydroorotate dehydrogenase.
Sequence of Dihydroorotate dehydrogenase (quinone), mitochondrial (Homo sapiens, UniProt Q02127) (Q02127 whole entry): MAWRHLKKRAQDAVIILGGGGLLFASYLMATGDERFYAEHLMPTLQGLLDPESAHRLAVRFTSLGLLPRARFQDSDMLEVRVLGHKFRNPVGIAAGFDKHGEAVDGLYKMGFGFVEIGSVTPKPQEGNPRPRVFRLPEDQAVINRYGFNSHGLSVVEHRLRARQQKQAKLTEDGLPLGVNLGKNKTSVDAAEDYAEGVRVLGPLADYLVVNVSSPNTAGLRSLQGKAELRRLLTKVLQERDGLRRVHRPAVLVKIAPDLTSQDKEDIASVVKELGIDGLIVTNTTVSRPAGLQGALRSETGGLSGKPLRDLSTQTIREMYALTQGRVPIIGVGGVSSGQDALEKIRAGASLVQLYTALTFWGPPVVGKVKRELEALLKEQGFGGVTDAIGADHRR
Settings: not given
Take `CC/C(O)=C(\C#N)C(=O)Nc1ccc(OS(=O)(=O)C(F)(F)F)cc1`: the half-maximal inhibitory concentration (IC50) amounted to 0.15 µM.
Consider `CC/C(O)=C(\C#N)C(=O)Nc1ccc(OS(=O)(=O)C(F)(F)F)c(C(=O)OC)c1`, for which the IC50 was 0.093 µM.
Compound `CC/C(O)=C(\C#N)C(=O)Nc1ccc(-c2ccccc2)c(C(=O)OC)c1` came in with a half-inhibitory concentration (IC50) of 0.073 µM.
The compound `CC/C(O)=C(\C#N)C(=O)Nc1ccc(-c2ccc(F)cc2)c(C(=O)OC)c1` displayed an IC50 of 0.11 µM.
Still for that read-out and setting: the value for `CC/C(O)=C(\C#N)C(=O)Nc1ccc(-c2ccccc2Cl)c(C(=O)OC)c1` was 0.052 µM.
Compound `CC/C(O)=C(\C#N)C(=O)Nc1ccc(-c2cccc(Cl)c2)c(C(=O)OC)c1` came in with a half-inhibitory concentration (IC50) of 0.031 µM.
As to `CC/C(O)=C(\C#N)C(=O)Nc1ccc(-c2ccc(Cl)cc2)c(C(=O)OC)c1`, the IC50 turned out to be 0.045 µM.
The same measure, in the same setting: under `CC/C(O)=C(\C#N)C(=O)Nc1ccc(-c2cccc(OC(F)(F)F)c2)c(C(=O)OC)c1` stands 0.027 µM; under `CC/C(O)=C(\C#N)C(=O)Nc1ccc(-c2cccc(F)c2)c(C(=O)OC)c1`, 0.198 µM; under `CC/C(O)=C(\C#N)C(=O)Nc1ccc(-c2ccc(F)cc2F)c(C(=O)OC)c1`, 0.031 µM.
On the same count and under the same terms, the value for `CC/C(O)=C(\C#N)C(=O)Nc1ccc(-c2cccnc2)c(C(=O)OC)c1` was 0.04 µM; that for `CC/C(O)=C(\C#N)C(=O)Nc1ccc(-c2ccc(F)cc2C)c(C(=O)OC)c1` was 0.049 µM.
Still for that read-out and setting: under `CC/C(O)=C(\C#N)C(=O)Nc1ccc(-c2ccc(F)nc2)c(C(=O)OC)c1` stands 0.15 µM.
`CC/C(O)=C(\C#N)C(=O)Nc1ccc(-c2ccc(F)c(F)c2)c(C(=O)OC)c1` came in with a half-inhibitory concentration (IC50) of 0.097 µM.
In turn, `CC/C(O)=C(\C#N)C(=O)Nc1ccc(-c2cc(F)c(F)c(F)c2)c(C(=O)OC)c1` yielded a concentration for half-maximal inhibition (IC50) of 0.137 µM.
Still for that read-out and setting: under `CC/C(O)=C(\C#N)C(=O)Nc1ccc(-c2ccc(F)cc2OC)c(C(=O)OC)c1` stands 0.066 µM; under `CCOc1cccc(-c2ccc(NC(=O)/C(C#N)=C(\O)CC)cc2C(=O)OC)c1`, 0.059 µM.
`CC/C(O)=C(\C#N)C(=O)Nc1ccc(-c2ccc3c(c2)OCO3)c(C(=O)OC)c1` yielded an IC50 of 0.076 µM.
Same read-out and setting: under `CC/C(O)=C(\C#N)C(=O)Nc1ccc(-c2cccc(OC)c2)c(C(=O)OC)c1` stands 0.026 µM; under `CC/C(O)=C(\C#N)C(=O)Nc1ccc(-c2ccc3c(c2)OCCO3)c(C(=O)OC)c1`, 0.066 µM; under `CC/C(O)=C(\C#N)C(=O)Nc1ccc(-c2cccc(OC(F)F)c2)c(C(=O)OC)c1`, 0.034 µM.
The same measure, in the same setting: the value for `CC/C(O)=C(\C#N)C(=O)Nc1ccc(-c2cccc(OC3CCC3)c2)c(C(=O)OC)c1` was 0.031 µM.
